These results are taken from patent US12577206B2 (BRISTOL-MYERS SQUIBB COMPANY, priority 2020, dated 2026).

A value given as a limit tells only on which side of the number the result lay.

One assay deals with T1, human FPR2 (Homo sapiens, UniProt P25090).
T1 sequence (P25090 1-351): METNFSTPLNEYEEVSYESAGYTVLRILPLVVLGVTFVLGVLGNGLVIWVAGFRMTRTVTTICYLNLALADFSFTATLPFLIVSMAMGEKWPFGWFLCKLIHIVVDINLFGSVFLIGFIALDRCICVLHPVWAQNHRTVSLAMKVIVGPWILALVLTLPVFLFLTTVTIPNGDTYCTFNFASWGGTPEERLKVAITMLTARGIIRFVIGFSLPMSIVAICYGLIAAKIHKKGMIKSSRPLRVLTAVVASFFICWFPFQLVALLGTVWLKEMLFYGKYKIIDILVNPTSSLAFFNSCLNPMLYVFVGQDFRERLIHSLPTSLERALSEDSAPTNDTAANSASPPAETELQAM
Nature of the assay: FPR2 cyclic adenosine monophosphate (cAMP) assay. Format: cell-based. The settings on record: CHO cells overexpressing human FPR2; forskolin 5 μM; inhibition of cAMP production; HTRF; read-out: hFPR2 cAMP2 EC50. A digest of the protocol:
(§1)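 CHO/hFPR1 4,000 cells/well, forskolin 10 μM final; CHO/hFPR2 2,000 cells/well, forskolin 5 μM final. IBMX 200 μM, DMSO 1%, DPBS + Ca/Mg + 0.1% BSA, 30 min rt. HTRF cAMP; 4-PL fit.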
On the technique in general: Changes in cAMP serve as a functional read-out for many G protein-coupled receptors.

The target of the next assay is T2, human FPR1 (Homo sapiens, UniProt P21462).
T2 sequence (P21462 1-350): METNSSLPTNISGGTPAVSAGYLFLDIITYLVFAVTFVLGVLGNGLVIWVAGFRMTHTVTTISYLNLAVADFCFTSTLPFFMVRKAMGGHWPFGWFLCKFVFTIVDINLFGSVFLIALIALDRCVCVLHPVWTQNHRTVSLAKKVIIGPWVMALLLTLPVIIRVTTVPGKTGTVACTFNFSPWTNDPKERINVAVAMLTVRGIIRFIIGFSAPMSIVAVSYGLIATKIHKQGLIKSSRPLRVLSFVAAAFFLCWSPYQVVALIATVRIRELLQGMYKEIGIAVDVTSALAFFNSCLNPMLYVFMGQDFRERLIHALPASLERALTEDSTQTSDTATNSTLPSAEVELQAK
In words: FPR1 cyclic adenosine monophosphate (cAMP) assay. Format: cell-based. As to conditions: CHO cells overexpressing human FPR1; forskolin 10 μM; inhibition of cAMP production; HTRF; read-out: hFPR1 cAMP2 EC50. A digest of the protocol:
as §1

As a reminder, the EC50 is the concentration that produces a half-maximal response. Turning to `COc1cc(F)c(-c2c(NC(=O)c3ccc(OC(F)F)cc3)c(=O)n(-c3cccc(C#N)c3F)n2C)c(F)c1` [Example 189, N-[2-(3-cyano-2-fluorophenyl)-5-(2,6-difluoro-4-methoxyphenyl)-1-methyl-3-oxo-2,3-dihydro-1H-pyrazol-4-yl]-4-(difluoromethoxy)benzamide], the 50% effective concentration (EC50) on human FPR2 was found to be 5 nM; at human FPR1 it was 190 nM.

As for `COc1cc(F)c(-c2c(NC(=O)c3ccc(OC(F)(F)F)cc3)c(=O)n(-c3ccccc3C#N)n2C)c(F)c1` [Example 174, N-[2-(2-cyanophenyl)-5-(2,6-difluoro-4-methoxyphenyl)-1-methyl-3-oxo-2,3-dihydro-1H-pyrazol-4-yl]-4-(trifluoromethoxy)benzamide], the concentration for a half-maximal effect (EC50) on human FPR2 was 7 nM; on human FPR1 it was above 10000 nM.

As to `COc1cc(F)c(-c2c(NC(=O)c3ccc(OC(F)F)cc3)c(=O)n(-c3nc(S(C)(=O)=O)ccc3C(F)(F)F)n2C)c(F)c1` [Example 318, N-[5-(2,6-difluoro-4-methoxyphenyl)-2-[6-methanesulfonyl-3-(trifluoromethyl)pyridin-2-yl]-1-methyl-3-oxo-2,3-dihydro-1H-pyrazol-4-yl]-4-(difluoromethoxy)benzamide], the concentration for a half-maximal effect (EC50) is 7 nM at human FPR2 and above 10000 nM at human FPR1.

Take `COc1cc(F)c(-c2c(NC(=O)c3ccc(OC(F)F)cc3)c(=O)n(-c3cc(OCC4(C)COC4)cc(C)n3)n2C)c(F)c1` [Example 327, N-(5-(2,6-Difluoro-4-methoxyphenyl)-1-methyl-2-(6-methyl-4-((3-methyloxetan-3-yl)methoxy)pyridin-2-yl)-3-oxo-2,3-dihydro-1H-pyrazol-4-yl)-4-(difluoromethoxy)benzamide]: the EC50 at human FPR2 was 23 nM; on human FPR1, 59 nM.

On to `COc1cc(F)c(-c2c(NC(=O)c3ccc(OC(F)F)cc3)c(=O)n(-c3nc(N(C)C)ccc3Cl)n2C)c(F)c1` [Example 147, N-{2-[3-chloro-6-(dimethylamino)pyridin-2-yl]-5-(2,6-difluoro-4-methoxyphenyl)-1-methyl-3-oxo-2,3-dihydro-1H-pyrazol-4-yl}-4-(difluoromethoxy)benzamide], for which the values for the EC50 at human FPR2 and at human FPR1 were 3 nM and 730 nM, respectively.

With `COC(=O)COc1ccc(C(F)(F)F)c(-n2c(=O)c(NC(=O)c3ccc(OC(F)F)cc3)c(-c3c(F)cc(OC)cc3F)n2C)n1` [Example 289, methyl 2-({6-[3-(2,6-difluoro-4-methoxyphenyl)-4-[4-(difluoromethoxy)benzamido]-2-methyl-5-oxo-2,5-dihydro-1H-pyrazol-1-yl]-5-(trifluoromethyl)pyridin-2-yl}oxy)acetate], the EC50 on human FPR2 was 4 nM; on human FPR1, above 10000 nM.

Regarding `CCOC(=O)c1cc(F)cc(-n2c(=O)c(NC(=O)c3ccc(OC(F)F)cc3)c(-c3c(F)cc(OC)cc3F)n2C)c1` [Example 133, ethyl 3-[3-(2,6-difluoro-4-methoxyphenyl)-4-[4-(difluoromethoxy)benzamido]-2-methyl-5-oxo-2,5-dihydro-1H-pyrazol-1-yl]-5-fluorobenzoate], the concentration for a half-maximal effect (EC50) on human FPR2 stood at 3 nM; at human FPR1, 550 nM.

Take `CNc1ccc(C(F)(F)F)c(-n2c(=O)c(NC(=O)c3ccc(OC(F)F)cc3)c(-c3c(O)cc(OC)cc3F)n2C)n1` [Example 233, 4-(difluoromethoxy)-N-[5-(2-fluoro-6-hydroxy-4-methoxyphenyl)-1-methyl-2-[6-(methylamino)-3-(trifluoromethyl)pyridin-2-yl]-3-oxo-2,3-dihydro-1H-pyrazol-4-yl]benzamide]: the results for the concentration for a half-maximal effect (EC50) at human FPR2 and on human FPR1 were 8 nM and above 10000 nM, respectively.

Take `Cn1ncc2cc(-c3c(NC(=O)c4ccc(OC(F)F)cc4)c(=O)n(-c4ncccc4C(F)(F)F)n3C)ccc21` [Example 223, 4-(difluoromethoxy)-N-(1-methyl-5-(1-methyl-1H-indazol-5-yl)-3-oxo-2-(3-(trifluoromethyl)pyridin-2-yl)-2,3-dihydro-1H-pyrazol-4-yl)benzamide]: the EC50 at human FPR2 is 166 nM; on human FPR1 it was above 5000 nM.

Regarding `COc1cc(F)c(-c2c(NC(=O)c3ccc(OC(F)F)cc3)c(=O)n(-c3cc(OC(C)C)cc(OCC(C)(C)O)n3)n2C)c(F)c1` [Example 377, N-(5-(2,6-Difluoro-4-methoxyphenyl)-2-(6-(2-hydroxy-2-methylpropoxy)-4-isopropoxypyridin-2-yl)-1-methyl-3-oxo-2,3-dihydro-1H-pyrazol-4-yl)-4-(difluoromethoxy)benzamide], the EC50 on human FPR2 was determined as 8 nM; on human FPR1, 470 nM.

In the case of `COc1cc(F)c(-c2c(NC(=O)c3ccc(OC(F)F)cc3)c(=O)n(C3CC3)n2C)c(F)c1` [Example 13, N-[2-cyclopropyl-5-(2,6-difluoro-4-methoxyphenyl)-1-methyl-3-oxo-2,3-dihydro-1H-pyrazol-4-yl]-4-(difluoromethoxy)benzamide], the EC50 on human FPR2 amounted to 22 nM; at human FPR1, 2400 nM.

As to `CCOC(=O)Cn1c(=O)c(NC(=O)c2ccc(OC(F)F)cc2)c(-c2c(F)cc(OC)cc2F)n1C` [Example 21, ethyl 2-[3-(2,6-difluoro-4-methoxyphenyl)-4-[4-(difluoromethoxy)benzamido]-2-methyl-5-oxo-2,5-dihydro-1H-pyrazol-1-yl]acetate], the values for the EC50 on human FPR2 and at human FPR1 were 140 nM and above 10000 nM, respectively.

As to `COc1cc(OCCCO)nc(-n2c(=O)c(NC(=O)c3ccc(OC(F)F)cc3)c(-c3c(F)cc(OC)cc3F)n2C)c1` [Example 329, N-(5-(2,6-Difluoro-4-methoxyphenyl)-2-(6-(3-hydroxypropoxy)-4-methoxypyridin-2-yl)-1-methyl-3-oxo-2,3-dihydro-1H-pyrazol-4-yl)-4-(difluoromethoxy)benzamide], the EC50 at human FPR2 is 4 nM; on human FPR1 it was above 10000 nM.

As to `COc1cc(F)c(-c2c(NC(=O)c3ccc(OC(F)F)cc3)c(=O)n(-c3cccc(N4CCCCC4)n3)n2C)c(F)c1` [Example 80, N-[5-(2,6-difluoro-4-methoxyphenyl)-1-methyl-3-oxo-2-[6-(piperidin-1-yl)pyridin-2-yl]-2,3-dihydro-1H-pyrazol-4-yl]-4-(difluoromethoxy)benzamide], the EC50 came to 2 nM on human FPR2 and 1300 nM at human FPR1.

As to `COc1cc(F)c(-c2c(NC(=O)c3ccc(OC(F)F)cc3)c(=O)n(-c3cccc(OCCO)n3)n2C)c(F)c1` [Example 333, N-(5-(2,6-Difluoro-4-methoxyphenyl)-2-(6-(2-hydroxyethoxy)pyridin-2-yl)-1-methyl-3-oxo-2,3-dihydro-1H-pyrazol-4-yl)-4-(difluoromethoxy)benzamide], the EC50 on human FPR2 amounted to 14 nM; at human FPR1, 1300 nM.

With `COc1cc(F)c(-c2c(NC(=O)c3ccc(OC(F)(F)F)cc3)c(=O)n(-c3cccc(OC(F)F)n3)n2C)c(F)c1` [Example 169, N-[5-(2,6-difluoro-4-methoxyphenyl)-2-[6-(difluoromethoxy)pyridin-2-yl]-1-methyl-3-oxo-2,3-dihydro-1H-pyrazol-4-yl]-4-(trifluoromethoxy)benzamide], the EC50 was found to be 15 nM on human FPR2 and 1400 nM at human FPR1.

Take `COc1ccc(-c2c(NC(=O)c3ccc(OC(F)F)cc3)c(=O)n(-c3nc(Cl)ccc3C(F)(F)F)n2C)c(F)c1` [Example 295, N-{2-[6-chloro-3-(trifluoromethyl)pyridin-2-yl]-5-(2-fluoro-4-methoxyphenyl)-1-methyl-3-oxo-2,3-dihydro-1H-pyrazol-4-yl}-4-(difluoromethoxy)benzamide]: the figures for the EC50 on human FPR2 and at human FPR1 were 1 nM and 1500 nM, respectively.

`COc1cc(-n2c(=O)c(NC(=O)c3ccc(OC(F)F)cc3)c(-c3c(F)cc(OC)cc3F)n2C)nc(C2(O)CCC2)c1` [Example 100, N-[5-(2,6-difluoro-4-methoxyphenyl)-2-[6-(1-hydroxycyclobutyl)-4-methoxypyridin-2-yl]-1-methyl-3-oxo-2,3-dihydro-1H-pyrazol-4-yl]-4-(difluoromethoxy)benzamide]: the EC50 on human FPR2 was determined as 2 nM; at human FPR1, 1600 nM.

`COc1cc(F)c(-c2c(NC(=O)c3ccc(OC(F)F)cc3)c(=O)n(-c3nc(OCC4CC4)ccc3C(F)(F)F)n2C)c(F)c1` [Example 287, N-{2-[6-(cyclopropylmethoxy)-3-(trifluoromethyl)pyridin-2-yl]-5-(2,6-difluoro-4-methoxyphenyl)-1-methyl-3-oxo-2,3-dihydro-1H-pyrazol-4-yl}-4-(difluoromethoxy)benzamide]: the EC50 at human FPR2 was 13 nM; at human FPR1, above 5000 nM.
